The record followed here is patent US4988707A, “Pharmacologically active phenylalkanoyl substituted imidazo (4,5-C) pyridines” (G. D. Searle & Co., priority 1989, dated 1991).

Experiment [1] has as its system Rabbit Platelet. Kind of experiment: PAF-induced platelet secretion ([3H]serotonin). The following applies: Oryctolagus cuniculus, washed [3H]serotonin-labeled rabbit platelets, 60 sec preincubation, PAF 0.2 nM to 0.2 μM, secretion at 60 sec. Type of experiment: cell-based. As to the method:
(§1) PAF-induced platelet aggregation and secretion: Washed, [^3 H]serotonin-labeled rabbit platelets were prepared as previously described in COX, C. P , J. LINDEN and S. I. SAID: VIP elevates platelet cyclic AMP (cAMP) levels and inhibits in vitro platelet activation induced by platelet activating factor (PAF). Peptides 5:25-28, 1984, and maintained in an atmosphere of 5% CO2 at 37° C. until used in the bioassay. Aliquots of platelets (2.5×10^8 /ml) were incubated with either an antagonist of PAF or the appropriate vehicle for 60 sec prior to the addition of PAF (0.2 nM to 0.2 μM). Aggregation was continuously monitored on a strip-chart recorder and recorded as the height of the tracing at 60 sec after the addition of PAF. Secretion of [^3 H] serotonin was measured in a sample of the platelet suspension removed at 60 sec after the addition of PAF. The percent inhibition of aggregation and secretion was calculated by comparing antagonist-treated platelets with the appropriate vehicle-treated control platelets. Each combination of antagonist and PAF was repeated using different platelet preparations. IC50 values were determined by inspection of the dose-response curves.

The subject of experiment [2] is Rabbit Platelet. As to the kind of experiment: PAF-induced platelet aggregation. Type of experiment: cell-based. The following applies: Oryctolagus cuniculus, washed rabbit platelets, 60 sec preincubation, PAF 0.2 nM to 0.2 μM, aggregation at 60 sec. Here is the method:
as §1

For a further experiment, the target named is Human Platelet Receptor (Homo sapiens, UniProt P25105).
Sequence of Human Platelet Receptor (P25105 whole entry): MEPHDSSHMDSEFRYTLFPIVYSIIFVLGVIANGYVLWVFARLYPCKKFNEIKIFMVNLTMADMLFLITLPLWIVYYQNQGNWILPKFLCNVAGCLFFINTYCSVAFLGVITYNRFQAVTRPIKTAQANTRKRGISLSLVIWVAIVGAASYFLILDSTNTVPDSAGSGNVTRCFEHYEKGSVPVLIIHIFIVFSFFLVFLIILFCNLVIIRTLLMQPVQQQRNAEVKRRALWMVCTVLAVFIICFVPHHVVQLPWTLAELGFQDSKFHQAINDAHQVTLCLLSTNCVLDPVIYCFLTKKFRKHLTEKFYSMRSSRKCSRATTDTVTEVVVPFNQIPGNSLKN

Method for Human Platelet Receptor: Inhibition of ^3 H-PAF Binding to Human Platelet Membrane Receptors
Receptor Preparation: Ten units of in-dated human packed platelets, each containing 45-65 ml platelet rich-plasma, were purchased from a commercial blood bank. Disposable plasticware was used throughout for receptor preparation. The units were pooled and a 1 ml aliquot was removed for determination of platelet concentration, using a Coulter Counter. The remaining platelet rich plasma was dispensed into 50 ml conical tubes and centrifuged at room temperature for 15 minutes at 3000 RPM (2300×g).Plasma was decanted and the platelets were resuspended in 35 ml of buffer (10 mM Trizma 7.0, 2 mM EDTA (dipotassium salt), and 150 mM KCl) and transferred to fresh tubes, which were centrifuged again as above. The platelets were washed 3 times, avoiding contaminating erythrocytes at the bottom of the pellets. Pellets were consolidated at each step, and by the last wash with EDTA/KCl buffer, most of the erythrocytes were in 1 tube. The pellets were resuspended in buffer containing 10 mM Trizma 7.0 with 10 mM CaCl2. Following centrifugation, the buffer was decanted and the pellets were resuspended in the CaCl2 buffer, avoiding erythrocyte contamination by recovering less than 100% of the platelet pellets. The resuspended platelets were dispensed in 8-10 ml aliquots into Corex tubes and disrupted by three cycles of freezing (dry ice/ethanol) and thawing (24° C.). The tubes were centrifuged at 40,000×g for 20 minutes at 4° C. Supernatants were decanted and each pellet was resuspended in 5-7 ml 10 mM Trizma 7.0. All resuspended pellets were pooled and aliquots of about 1200 μl were dispensed into 1.5 ml microfuge tubes and frozen at -70° C. Protein content was determined by a fluorescamine protein assay.
Assay Methods: Receptor Characterization--Each receptor preparation was evaluated to determine the number of receptor populations, the number of PAF receptor equivalents/mg protein and the dissociation constant (KD) for PAF binding. This required 2-3 experiments in which the protein concentration was held constant and the ^3 H-PAF ligand concentration was varied from approximately 0.10-2.5 nM and the data was analyzed by Scatchard methodology. Total incubation volume was 250 μl for these procedures and incubations were conducted at 24° C. for 30 minutes. For further experimentation, total incubation volumes are 500 μl. Protein and ligand concentrations were adjusted to give 0.075 nM receptor equivalents in the presence of 0.75 nM ^3 H-PAF. Each receptor preparation was then used to determine the dose--response displacement relationship of unlabeled PAF and the PAF antagonist, triazolam.
Assay Methods: Routine Assay of Compounds--The compounds were weighed precisely and solubilized in quantities of DMSO such that a 5 μl aliquot in the incubate would deliver the desired compound concentration. Compounds tested for the first time in this assay were evaluated at a concentration of 50 μM in the incubation medium. […] Triazolam was always included in each screening assay as a compound inhibition control. […] Nonspecific binding control solution was made by drying to completion about 26.2 μl unlabeled PAF under a stream of argon. PAF was resolubilized in 1000 μl DMSO. When delivered in a 5 μl aliquot, the final concentration of 1 μM PAF in the incubate exceeded by 1000-fold the concentration of ^3 H-PAF.
All buffers containing proteins were made at room temperature on the day of assay. […]

As for `O=C(CC1CCCCC1)c1ccc(Cn2ccc3ncnc-3c2)cc1` [2 Cyclohexyl-1-[4-(5H-Imidazo[4,5-c]Pyridin 5-yl-Methyl)Phenyl]Ethanone], the IC50 in the experiment on Rabbit Platelet [1] came out at 131 nM; in the experiment with Rabbit Platelet [2], 948 nM; against Human Platelet Receptor it was 4.44 nM.
As to `O=C(c1ccc(Cn2ccc3ncnc-3c2)cc1)C(C1CCCCC1)C1CCCC1` (stereo not shown) [2-Cyclohexyl-2-Cyclopentyl-1-[4-(5H Imidazol[4,5-c]Pyridin-5-yl-Methyl)Phenyl]Ethanone], the figures for the IC50 in the experiment on Rabbit Platelet [1], in the experiment with Rabbit Platelet [2] and against Human Platelet Receptor were 89 nM, 279 nM and 1.46 nM, respectively.
For `O=C(CC1CCCC1)c1ccc(Cn2ccc3ncnc-3c2)cc1` [2-Cyclopentyl-1-[4-(5H-Imidazo[4,5-c]Pyridin-5-yl-Methyl)Phenyl]Ethanone] the same measures were 379 nM, 2590 nM and 8.41 nM.
Consider `C=CCC(C(=O)c1ccc(Cn2ccc3ncnc-3c2)cc1)C1CCCCC1` (stereo not shown) [2-Cyclohexyl-1-[4-(5H-Imidazo[4,5-c]Pyridin-5-yl-Methyl)Phenyl]-4-Penten-1-One], for which the IC50 turned out to be 105 nM in the experiment with Rabbit Platelet [1], 633 nM in the experiment with Rabbit Platelet [2] and 2.22 nM on Human Platelet Receptor.
On to `Cc1nnc2n1-c1ccc(Cl)cc1C(c1ccccc1Cl)=NC2` [triazolam, reference compound], for which, at Human Platelet Receptor (read-out: inhibition of 3H-PAF binding), the inhibition at 50 µM is approximately 50%.
